pIC50: −log10 of the molar value. Entries after “also recorded” stand apart in the source; their conditions may differ.
Tests used:
[1] = target: T1, BSEP (Homo sapiens, UniProt O95342); experiment: Transporter inhibition, vesicular transport assay; format: in vitro ADME
T1 construct: host or cells: membrane vesicles

[2] = target: T2, OATP1B3 (Homo sapiens, UniProt Q9NPD5); experiment: Transporter substrate evaluation, HEK293 cells; format: in vitro ADME; conditions: 1 and 10 μM
T2 construct: expressed in transfected cells; host or cells: HEK293
T2 sequence (Q9NPD5 1-702): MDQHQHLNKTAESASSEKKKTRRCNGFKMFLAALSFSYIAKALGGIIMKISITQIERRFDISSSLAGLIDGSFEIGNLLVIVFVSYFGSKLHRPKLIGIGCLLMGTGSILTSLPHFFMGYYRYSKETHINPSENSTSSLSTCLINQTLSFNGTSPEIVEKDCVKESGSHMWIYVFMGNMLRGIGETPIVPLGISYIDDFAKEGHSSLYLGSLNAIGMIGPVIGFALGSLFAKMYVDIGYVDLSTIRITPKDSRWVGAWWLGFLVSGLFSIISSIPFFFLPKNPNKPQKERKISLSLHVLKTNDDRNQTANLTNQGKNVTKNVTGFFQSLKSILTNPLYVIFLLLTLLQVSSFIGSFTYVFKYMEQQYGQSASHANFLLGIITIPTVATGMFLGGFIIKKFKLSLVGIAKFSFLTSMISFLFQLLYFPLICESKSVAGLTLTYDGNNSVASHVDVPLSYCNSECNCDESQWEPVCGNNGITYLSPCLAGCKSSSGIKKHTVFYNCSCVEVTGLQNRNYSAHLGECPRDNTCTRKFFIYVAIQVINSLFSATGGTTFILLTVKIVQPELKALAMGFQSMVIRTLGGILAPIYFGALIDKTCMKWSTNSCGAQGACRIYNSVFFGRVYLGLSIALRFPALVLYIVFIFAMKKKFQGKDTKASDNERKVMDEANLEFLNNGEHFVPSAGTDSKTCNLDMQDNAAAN

[3] = target: T3, OAT3 (Homo sapiens, UniProt Q8TCC7); experiment: Transporter substrate evaluation, HEK293 cells; format: in vitro ADME; conditions: 1 and 10 μM
T3 construct: expressed in transfected cells; host or cells: HEK293
T3 sequence (Q8TCC7 1-542): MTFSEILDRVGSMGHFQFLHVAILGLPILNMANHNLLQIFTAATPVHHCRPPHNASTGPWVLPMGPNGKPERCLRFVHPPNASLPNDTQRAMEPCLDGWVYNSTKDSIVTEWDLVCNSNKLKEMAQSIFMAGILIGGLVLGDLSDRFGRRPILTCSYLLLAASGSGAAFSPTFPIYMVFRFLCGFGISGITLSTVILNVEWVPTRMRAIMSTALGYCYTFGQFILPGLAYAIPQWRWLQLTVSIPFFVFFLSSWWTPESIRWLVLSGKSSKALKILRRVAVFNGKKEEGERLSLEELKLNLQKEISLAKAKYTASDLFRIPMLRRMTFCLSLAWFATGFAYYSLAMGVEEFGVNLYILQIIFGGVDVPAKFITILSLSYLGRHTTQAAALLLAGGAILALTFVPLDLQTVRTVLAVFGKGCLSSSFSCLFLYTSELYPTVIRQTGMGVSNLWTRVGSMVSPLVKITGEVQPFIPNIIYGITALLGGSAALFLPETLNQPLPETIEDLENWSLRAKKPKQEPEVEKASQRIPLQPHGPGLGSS

[4] = target: T4, OCT1 (Homo sapiens, UniProt O15245); experiment: Transporter substrate evaluation, HEK293 cells; format: in vitro ADME; conditions: 1 and 10 μM
T4 construct: expressed in transfected cells; host or cells: HEK293
T4 sequence (O15245 1-554): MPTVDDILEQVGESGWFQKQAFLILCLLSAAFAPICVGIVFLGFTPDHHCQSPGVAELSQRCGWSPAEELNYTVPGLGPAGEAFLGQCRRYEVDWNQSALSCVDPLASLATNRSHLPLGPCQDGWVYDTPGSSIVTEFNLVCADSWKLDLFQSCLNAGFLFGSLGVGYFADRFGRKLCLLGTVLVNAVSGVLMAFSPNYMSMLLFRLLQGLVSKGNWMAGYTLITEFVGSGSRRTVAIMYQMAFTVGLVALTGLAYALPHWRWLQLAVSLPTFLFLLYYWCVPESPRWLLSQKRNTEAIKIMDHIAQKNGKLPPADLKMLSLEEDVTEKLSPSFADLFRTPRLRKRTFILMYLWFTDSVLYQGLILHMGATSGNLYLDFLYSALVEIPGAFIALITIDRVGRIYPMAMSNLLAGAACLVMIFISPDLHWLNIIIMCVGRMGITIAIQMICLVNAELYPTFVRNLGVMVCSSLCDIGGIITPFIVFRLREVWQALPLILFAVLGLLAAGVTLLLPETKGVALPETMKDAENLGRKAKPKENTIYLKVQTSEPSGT

[5] = in vivo
[6] = tested on: CYP3A4; experiment: CYP induction in cultured human hepatocytes; format: in vitro ADME; conditions: criteria >2-fold mRNA increase and ≥20% of positive control
[7] = target: T5, OCT2 (Homo sapiens, UniProt O15244); experiment: Transporter inhibition, HEK293 cells; format: in vitro ADME; conditions: [14C]-metformin (10 μM), 1 and 10 μM tested
T5 construct: expressed in transfected cells; host or cells: HEK293
T5 sequence (O15244 1-555): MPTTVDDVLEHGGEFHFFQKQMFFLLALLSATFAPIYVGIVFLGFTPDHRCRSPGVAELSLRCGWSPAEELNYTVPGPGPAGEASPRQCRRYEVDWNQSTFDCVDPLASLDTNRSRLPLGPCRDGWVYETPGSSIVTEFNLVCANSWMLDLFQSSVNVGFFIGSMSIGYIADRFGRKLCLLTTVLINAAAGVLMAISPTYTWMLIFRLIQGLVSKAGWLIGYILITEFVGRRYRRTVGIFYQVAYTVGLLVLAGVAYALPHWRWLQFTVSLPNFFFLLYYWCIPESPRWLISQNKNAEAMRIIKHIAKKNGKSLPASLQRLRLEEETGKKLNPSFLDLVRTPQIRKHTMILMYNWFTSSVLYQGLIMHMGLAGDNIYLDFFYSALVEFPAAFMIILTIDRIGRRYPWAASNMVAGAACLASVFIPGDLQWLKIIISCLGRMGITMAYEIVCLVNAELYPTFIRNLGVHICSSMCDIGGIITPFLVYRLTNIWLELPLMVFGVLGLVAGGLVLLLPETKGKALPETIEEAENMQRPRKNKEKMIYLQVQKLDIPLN

[8] = Phase 1 single dosing study: safety and tolerability
[9] = target: T3, OAT3; experiment: Transporter inhibition, HEK293 cells; format: in vitro ADME

T1 sequence (O95342 whole entry): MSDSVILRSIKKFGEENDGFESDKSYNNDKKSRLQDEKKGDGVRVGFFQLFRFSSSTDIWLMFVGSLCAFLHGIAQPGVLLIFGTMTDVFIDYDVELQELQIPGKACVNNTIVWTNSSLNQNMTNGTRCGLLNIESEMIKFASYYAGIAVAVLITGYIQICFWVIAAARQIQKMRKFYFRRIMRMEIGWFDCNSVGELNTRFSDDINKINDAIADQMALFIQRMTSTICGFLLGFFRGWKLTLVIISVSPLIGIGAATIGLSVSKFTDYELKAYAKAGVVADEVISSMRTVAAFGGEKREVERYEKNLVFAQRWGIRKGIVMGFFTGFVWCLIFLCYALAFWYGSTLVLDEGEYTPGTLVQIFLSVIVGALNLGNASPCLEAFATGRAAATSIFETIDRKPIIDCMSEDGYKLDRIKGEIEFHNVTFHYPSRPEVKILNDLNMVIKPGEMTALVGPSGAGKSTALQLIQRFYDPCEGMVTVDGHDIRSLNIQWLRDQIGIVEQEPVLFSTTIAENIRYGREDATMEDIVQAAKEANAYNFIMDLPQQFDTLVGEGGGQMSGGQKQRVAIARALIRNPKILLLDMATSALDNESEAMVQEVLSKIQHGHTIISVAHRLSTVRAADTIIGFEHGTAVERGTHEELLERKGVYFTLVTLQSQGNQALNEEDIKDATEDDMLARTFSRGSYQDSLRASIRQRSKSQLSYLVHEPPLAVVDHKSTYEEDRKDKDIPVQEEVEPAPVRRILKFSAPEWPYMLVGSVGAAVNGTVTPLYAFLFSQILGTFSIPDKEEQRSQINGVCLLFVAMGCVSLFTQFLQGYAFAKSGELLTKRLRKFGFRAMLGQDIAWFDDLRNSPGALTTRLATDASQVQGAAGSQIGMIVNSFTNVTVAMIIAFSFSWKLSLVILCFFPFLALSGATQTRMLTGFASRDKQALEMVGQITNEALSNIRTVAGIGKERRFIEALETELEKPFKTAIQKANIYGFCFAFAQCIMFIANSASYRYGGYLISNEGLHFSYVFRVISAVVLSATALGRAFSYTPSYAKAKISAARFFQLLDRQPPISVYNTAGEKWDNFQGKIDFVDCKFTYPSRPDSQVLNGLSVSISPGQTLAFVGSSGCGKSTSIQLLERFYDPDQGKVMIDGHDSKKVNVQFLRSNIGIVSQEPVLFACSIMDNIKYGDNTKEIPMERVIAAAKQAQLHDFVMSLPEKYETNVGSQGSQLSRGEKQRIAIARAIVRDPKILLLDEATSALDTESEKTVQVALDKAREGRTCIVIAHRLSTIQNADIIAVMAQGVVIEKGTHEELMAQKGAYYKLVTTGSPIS

## O=C(O)C[C@H]1CCc2c1[nH]c1ccc(OCc3ccc(C4CCCC4)c(C(F)(F)F)c3)cc21 [Compound 1, (R)-2-(7-(4-cyclopentyl-3-(trifluoromethyl)benzyloxy)-1,2,3,4-tetrahydrocyclopenta[b]indol-3-yl)acetic acid]
[1]; 1 and 10 μM
  Reduction of ATP-dependent uptake of [3H]-taurocholic acid in BSEP-expressing vesicles (inhibition): less than 50%
[1]; vesicles, [3H]-taurocholic acid (0.4 μM), 1 and 10 μM tested
  pIC50: < 5.00
[2]; HEK293 cells
  Potential substrate of OATP1B3: not a substrate of OATP1B3 and not a substrate and No
[2]; absence and presence of rifampin
  Uptake ratio into OATP1B3-expressing cells: less than two
[3]; HEK293 cells
  Potential substrate of OAT3: not a substrate of OAT3 and not a substrate and No
[3]; absence and presence of probenecid (100 μM)
  Uptake ratio into OAT3-expressing cells: below two
[4]; HEK293 cells
  Potential substrate of OCT1: not a substrate of OCT1 and not a substrate and No
[4]; absence and presence of quinidine (100 μM)
  Uptake ratio into OCT1-expressing cells: below two
[5]
  Gender difference in mean plasma concentrations and exposure parameters: only moderately higher in females compared to males
[6]
  Induction potential for CYP3A4: no induction potential; also recorded: not a potential inducer
[7]
  pIC50: < 5.00
[8]; single doses 0.1 to 5 mg
  Deaths or serious adverse events: no deaths or serious adverse events
[8]; single dosing, L-arginine salt
  Maximum tolerated dose: 3 mg
[9]; 1 and 10 μM
  Reduction of uptake rate of estrone-3-sulfate into OAT3-expressing cells (inhibition): less than 50%
[9]; HEK293 cells, [3H]-estrone-3-sulfate (50 nM), 1 and 10 μM tested
  pIC50: < 5.00
